{
  "source": "patent US5217975A",
  "about": "(priority 1989, dated 1993)",
  "key": {"muscarinic receptors [1]": {"molecular_target": "muscarinic receptors", "test": "Radioligand binding: displacement of muscarinic agonist 3H-Oxotremorine-M (3H-OXO-M), rat cerebral cortex", "set-up": "species or system Hooded Lister rats", "settings": "displacement of 2 nM 3H-OXO-M, 2 mM magnesium chloride, 37° C., 30 min"}, "muscarinic receptors [2]": {"molecular_target": "muscarinic receptors", "type": "binding, Hooded Lister rats", "settings": "displacement of 0.27 nM 3H-QNB, rat cerebral cortex, 37° C., 30 min"}},
  "note": "Like-named read-outs stand apart in the source and are kept apart here.",
  "data": [
    {"smiles": "Cn1ncc(C23CCCN(CC2)C3)n1", "note": "(racemic) [Example E1, (±) 5-(2-Methyl-1,2,3-triazol-4-yl)-1-azabicyclo-[3.2.1]octane]", "values": [
      {"measurement": "IC50", "setting": "muscarinic receptors [1]", "value": 14.2, "unit": "nM"},
      {"measurement": "IC50", "setting": "muscarinic receptors [2]", "value": 3000, "unit": "nM"}
    ]},
    {"smiles": "Cn1nnc(C2CN3CCC2CC3)n1", "note": "(racemic) [Example E2, (±) 3-(2-Methyltetrazol-5-yl)-1-azabicyclo[2.2.2]octane]", "values": [
      {"measurement": "IC50", "setting": "muscarinic receptors [1]", "value": 230, "unit": "nM"},
      {"measurement": "IC50", "setting": "muscarinic receptors [2]", "value": 5700, "unit": "nM"}
    ]},
    {"smiles": "Cn1nnc(C23CCCN(CC2)C3)n1", "note": "(racemic) [Example E3, (±) 5-(2-Methyltetrazol-5-yl)-1-azabicyclo[3.2.1]octane]", "values": [
      {"measurement": "IC50", "setting": "muscarinic receptors [1]", "value": 100, "unit": "nM"},
      {"measurement": "IC50", "setting": "muscarinic receptors [2]", "value": 8200, "unit": "nM"}
    ]},
    {"smiles": "CCn1nnc(C2CN3CCC2CC3)n1", "note": "(racemic) [Example E9, (±) 3-(2-Ethyltetrazol-5-yl)-1-azabicyclo[2.2.2]octane]", "values": [
      {"measurement": "IC50", "setting": "muscarinic receptors [1]", "value": 1000, "unit": "nM"},
      {"measurement": "IC50", "setting": "muscarinic receptors [2]", "value": 8300, "unit": "nM"}
    ]},
    {"smiles": "Cn1ncc(C2CN3CCC2CC3)n1", "note": "(racemic) [Example E11]", "values": [
      {"measurement": "IC50", "setting": "muscarinic receptors [1]", "value": 56, "unit": "nM"},
      {"measurement": "IC50", "setting": "muscarinic receptors [2]", "value": 6550, "unit": "nM"}
    ]},
    {"smiles": "Cn1nncc1C1CN2CCC1CC2", "note": "(racemic) [Example E13]", "values": [
      {"measurement": "IC50", "setting": "muscarinic receptors [1]", "value": 750, "unit": "nM"},
      {"measurement": "IC50", "setting": "muscarinic receptors [2]", "value": 38000, "unit": "nM"}
    ]},
    {"smiles": "Cn1nnc([C@@H]2CN3CC[C@@H]2C3)n1", "note": "(relative stereo) [Example E4, (±) exo-3-(2-Methyltetrazol-5-yl)-1-azabicyclo-[2.2.1]heptane]", "values": [
      {"measurement": "IC50", "setting": "muscarinic receptors [1]", "value": 11.5, "unit": "nM"},
      {"measurement": "IC50", "setting": "muscarinic receptors [2]", "value": 3700, "unit": "nM"}
    ]},
    {"smiles": "Cn1nnnc1[C@@H]1CN2CC[C@@H]1C2", "note": "(relative stereo) [Example E5, (±) exo-3-(1-Methyltetrazol-5-yl)-1-azabicyclo-[2.2.1]heptane]", "values": [
      {"measurement": "IC50", "setting": "muscarinic receptors [1]", "value": 349, "unit": "nM"},
      {"measurement": "IC50", "setting": "muscarinic receptors [2]", "value": 95000, "unit": "nM"}
    ]},
    {"smiles": "Cn1nnc([C@H]2CN3CC[C@@H]2C3)n1", "note": "(relative stereo) [Example E6, (±) endo-3-(2-Methyltetrazol-5-yl)-1-azabicyclo-[2.2.1]heptane]", "values": [
      {"measurement": "IC50", "setting": "muscarinic receptors [1]", "value": 324, "unit": "nM"},
      {"measurement": "IC50", "setting": "muscarinic receptors [2]", "value": 40000, "unit": "nM"}
    ]},
    {"smiles": "Cn1ncc([C@@H]2CN3CC[C@@H]2C3)n1", "note": "(relative stereo) [Example E14, (±) exo-3-(2-Methyl-1,2,3-triazol-4-y1)-1-azabicyclo 2.2.1]heptane]", "values": [
      {"measurement": "IC50", "setting": "muscarinic receptors [1]", "value": 5.6, "unit": "nM"},
      {"measurement": "IC50", "setting": "muscarinic receptors [2]", "value": 5700, "unit": "nM"}
    ]},
    {"smiles": "Cn1ncc([C@H]2CN3CC[C@@H]2C3)n1", "note": "(relative stereo) [Example E15, (±) endo-3-(2-Methyl-1,2,3-triazol-4-yl)-1-azabicyclo [2.2.1]heptane]", "values": [
      {"measurement": "IC50", "setting": "muscarinic receptors [1]", "value": 10.5, "unit": "nM"},
      {"measurement": "IC50", "setting": "muscarinic receptors [2]", "value": 18500, "unit": "nM"}
    ]},
    {"smiles": "CCn1nnc([C@@H]2CN3CC[C@@H]2C3)n1", "note": "(relative stereo) [Example E18, (±) exo-3-(2-Ethyltetrazol-5-yl)-1-azabicyclo[2.2.1]heptane]", "values": [
      {"measurement": "IC50", "setting": "muscarinic receptors [1]", "value": 400, "unit": "nM"},
      {"measurement": "IC50", "setting": "muscarinic receptors [2]", "value": 5500, "unit": "nM"}
    ]},
    {"smiles": "CCn1ncc([C@@H]2CN3CC[C@@H]2C3)n1", "note": "(relative stereo) [Example E19, (±) exo-3-(2-Ethyl-1.2.3-triazol-4-yl)-1-azabicyclo [2.2.1]heptane]", "values": [
      {"measurement": "IC50", "setting": "muscarinic receptors [1]", "value": 540, "unit": "nM"},
      {"measurement": "IC50", "setting": "muscarinic receptors [2]", "value": 2200, "unit": "nM"}
    ]},
    {"smiles": "Cn1nnc(C23CCN(CC2)C3)n1", "note": "[Example E8, 4-(2-Methyltetrazol-5-yl)-1-azabicyclo2.2.11 heptane]", "values": [
      {"measurement": "IC50", "setting": "muscarinic receptors [1]", "value": 250, "unit": "nM"},
      {"measurement": "IC50", "setting": "muscarinic receptors [2]", "value": 56000, "unit": "nM"}
    ]},
    {"smiles": "Cn1ncc(C23CCN(CC2)C3)n1", "note": "[Example E10, 4-(2-Methyl-1,2,3-triazol-4-yl)-1-azabicyclo[2.2.1]-heptane]", "values": [
      {"measurement": "IC50", "setting": "muscarinic receptors [1]", "value": 32, "unit": "nM"},
      {"measurement": "IC50", "setting": "muscarinic receptors [2]", "value": 20000, "unit": "nM"}
    ]},
    {"smiles": "CCn1ncc(C23CCN(CC2)C3)n1", "note": "[Example E16]", "values": [
      {"measurement": "IC50", "setting": "muscarinic receptors [1]", "value": 440, "unit": "nM"},
      {"measurement": "IC50", "setting": "muscarinic receptors [2]", "value": 15800, "unit": "nM"}
    ]}
  ]
}
